From a compilation of properties of binary mixtures (doi:10.1016/j.molliq.2017.09.038)

Assay: xn = mol fraction of the nth substance listed
Settings: 101 kPa

CCCCCCCCCC[n+]1ccn(C)c1.[Br-] + O
viscosity [mPa·s]
Settings	288 K	293 K	298 K	303 K	308 K
x1 = 0.0146	3.39	3.21	2.77	–	1.94
x1 = 0.0194	4.6	4.1	3.72	–	2.83
x1 = 0.0248	6.77	5.99	5.72	5.12	4.22
x1 = 0.031	9.19	8.61	8.09	7.92	7.3
